# Test results: US20230219912A1, “HALOGENATED BENZOTHIADIAZINES FOR THE TREATMENT OF CANCER” (BOARD OF REGENTS OF THE UNIVERSITY OF NEBRASKA, priority 2020, published 2023)
# “And” between values parts separate entries of the source, which are not always exact repeats. Identical values can stand only once. “Also recorded” adds a separate entry of the source. Like-named read-outs stand apart in the source and are kept apart here.
# Legend:
# [1] = target: T1, Mitochondrial respiratory complex II (Rattus norvegicus, UniProt P21913+Q641Z9+Q6PCT8+Q920L2); experiment: Mitochondrial respiratory complex II inhibition assay; format: biochemical; details: 100 μM, relative to DMSO control; for inhibition at 100 µM: read-out: inhibition of CII
# T1 construct: measured spectrophotometrically using isolated rat heart mitochondria; from tissue; host or cells: rat heart mitochondria / sub-mitochondrial particles
# Procedure: The assay was performed as follows. Mitochondria were isolated either from fresh rat hearts or by differential centrifugation in sucrose-based buffer as previously described.^24 Complex II enzymatic activity was determined spectrophotometrically as the rate of succinate-driven, co-enzyme Q2-linked reduction of dichlorophenolindophenol (DCPIP).^49 Mitochondria or sub-mitochondrial particles were incubated in phosphate buffer (pH 7.4) containing 40 μM DCPIP, 1 mM KCN, 10 μM rotenone, and 50 μM co-enzyme Q2. The rate of reduction of DCPIP to DCPIPH2 was followed at […] (ε=21,000 M-1). Varying amounts of succinate and inhibitors were used to determine an IC50 value. At the end of each run thenoyltrifluoroacetone (1 mM) was added and the residual TTFA-insensitive rate subtracted.
# [2] = tested on: VEGF-induced proliferation of HUVEC cells; experiment: VEGF-induced HUVEC proliferation, MTT assay; format: cell-based, human; details: for inhibition of VEGF-induced HUVEC proliferation (in words): 20 μM; for inhibition at 20 µM: Homo sapiens, HUVEC, 48 h, read-out: % Inhibition of Proliferation
# Procedure: The assay was performed as follows. Vascular endothelial growth factor (VEGF, Cat #SRP3182) was purchased from Sigma. […] Stock solutions of all compounds were prepared in DMSO and were serially diluted for cell culture treatment maintaining the final DMSO concentration at less than 1%. Cell proliferation of HUVECs was evaluated through the MTT (3-[4, 5-dimethylthiazol-2-yl]-2, 5-dimethyltetrazolium bromide) colorimetric assay, as previously described.^28 The HUVECs were seeded at a density of 10,000 cells/well in 24 well plates in serum-containing medium and cultured overnight. Cells were starved with 300 μL of assay media (0.1% BSA+0.1% FBS in basal medium) for 24 h. Then, cells were treated with 500 μL of assay medium (control group), VEGF (10 ng/mL, positive control group) or VEGF along with compounds (20 μM). After 48 h of culture, 50 μL of MTT stock (5 mg/mL in PBS) was added to each well and incubated for 2 h at 37° C. to allow the formation of dark blue formazan crystals in the metabolically active cells. The medium was removed, the cells were washed with PBS (pH 7.4), and 100 μL of acidified isopropanol (0.33 mL HCl in 100 mL isopropanol) was added to each well and incubated for 5 min with thorough agitation to solubilize the formazan crystals. An equal volume of the solution was transferred to a 96-well plate and the absorbance was immediately measured using a microplate reader at a wavelength of 570 nm.
# [3] = tested on: 22Rv1 prostate cancer cells; experiment: MTS cytotoxicity assay in 22Rv1 prostate cancer cells; details: Homo sapiens, 22Rv1, 48 h, read-out: reduction of 22Rv1 cell viability
# Procedure: The assay was performed as follows. To determine the cell growth inhibition ability of the synthesized compounds the (3-(4,5-dimethylthiazol-2-yl)-5-(3-carboxymethoxyphenyl)-2-(4-sulfophenyl)-2H-tetrazolium) (MTS) assay used according to the manufacturer's recommended protocol. Stock solutions of the synthesized compounds were prepared in DMSO. Cells were seeded at a density of 1×10^5 cells in 96-well plates. After 24 hours, cells were treated at the indicated concentrations of test compounds, limiting the final DMSO concentration to less than 1%. After incubation at 37° C. in an environment of 5% CO2 for 48-72 hours, 10 μL of MTS reagent (CellTiter 96© AQueous One Solution Reagent) was added to each well and incubated at the above mentioned conditions for 2-4 hr. Absorbance was recorded at 490 nm on a BioTek Synergy Mx multimode plate reader and the viability of cells were plotted as percentage of controls.
# [4] = 20 μM compound, VEGF 10 ng/mL, relative to VEGF treated cells, mean ± SEM n = 3
# T1 sequence (Q920L2 35-656): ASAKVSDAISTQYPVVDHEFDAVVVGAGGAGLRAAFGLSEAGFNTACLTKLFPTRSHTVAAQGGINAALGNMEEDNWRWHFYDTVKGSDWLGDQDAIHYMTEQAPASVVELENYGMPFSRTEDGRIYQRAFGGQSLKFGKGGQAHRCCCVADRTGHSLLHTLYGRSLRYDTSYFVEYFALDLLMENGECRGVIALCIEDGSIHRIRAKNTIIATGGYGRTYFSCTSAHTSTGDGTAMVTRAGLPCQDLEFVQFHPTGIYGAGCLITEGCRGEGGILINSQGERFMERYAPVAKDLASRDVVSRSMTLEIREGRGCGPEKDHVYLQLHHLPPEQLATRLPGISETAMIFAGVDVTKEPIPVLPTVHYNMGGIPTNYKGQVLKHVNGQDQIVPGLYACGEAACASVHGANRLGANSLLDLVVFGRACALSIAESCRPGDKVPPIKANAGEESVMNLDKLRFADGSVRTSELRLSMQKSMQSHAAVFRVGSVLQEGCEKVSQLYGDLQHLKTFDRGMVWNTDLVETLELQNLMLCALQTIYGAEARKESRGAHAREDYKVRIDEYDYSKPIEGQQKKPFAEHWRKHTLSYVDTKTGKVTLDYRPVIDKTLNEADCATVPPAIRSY
# T1 sequence (P21913 31-282): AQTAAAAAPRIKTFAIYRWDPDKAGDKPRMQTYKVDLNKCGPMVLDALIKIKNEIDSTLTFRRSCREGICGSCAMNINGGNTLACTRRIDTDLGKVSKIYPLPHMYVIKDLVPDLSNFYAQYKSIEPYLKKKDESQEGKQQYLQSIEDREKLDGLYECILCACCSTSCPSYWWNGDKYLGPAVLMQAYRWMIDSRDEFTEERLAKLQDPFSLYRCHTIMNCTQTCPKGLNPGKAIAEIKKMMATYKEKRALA
# T1 sequence (Q641Z9 1-169): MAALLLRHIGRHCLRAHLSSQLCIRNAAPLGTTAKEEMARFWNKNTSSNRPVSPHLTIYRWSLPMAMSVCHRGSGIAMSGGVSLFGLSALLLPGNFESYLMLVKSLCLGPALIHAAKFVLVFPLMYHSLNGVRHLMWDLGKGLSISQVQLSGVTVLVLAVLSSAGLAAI
# T1 sequence (Q6PCT8 57-159): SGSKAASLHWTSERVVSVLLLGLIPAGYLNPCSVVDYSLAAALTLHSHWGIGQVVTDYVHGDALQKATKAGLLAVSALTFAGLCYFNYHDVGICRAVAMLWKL
smiles,measurement,setting,value
"O=S1(=O)N=C(NCc2ccc(Cl)cc2)Nc2ccc(Br)cc21 [Compound 16c, 7-bromo-3-((4-chlorobenzyl)amino)-4H-benzo[e][1,2,4]thiadiazine 1,1-dioxide dioxide]",inhibition of CII,[1],45%
"Cc1ccc(CNC2=NS(=O)(=O)c3cc(F)ccc3N2)cc1 [Compound 27a, 7-fluoro-3-((4-methylbenzyl)amino)-4H-benzo[e][1,2,4]thiadiazine 1,1-dioxide]",inhibition at 100 µM,[1],23%
"O=S1(=O)N=C(NC2CCCC2)Nc2ccc(F)cc21 [Compound 22a, 7-fluoro-3-(cyclopentylamino)-4H-benzo[e][1,2,4]thiadiazine 1,1-dioxide]",inhibition of CII,[1],inactive
"O=S1(=O)N=C(NCCc2ccccc2)Nc2cc(Cl)ccc21 [Compound 18b, 6-chloro-3-(phenethylamino)-4H-benzo[e][1,2,4]thiadiazine 1,1-dioxide]",inhibition of VEGF-induced HUVEC proliferation (in words),[2]; VEGF 10 ng/mL,suppressed HUVEC proliferation; also recorded: enhanced activity
same,inhibition at 20 µM,[2],118 ± 12%
"C=CCNC1=NS(=O)(=O)c2ccc(Cl)cc2N1 [Compound 32b, 3-(allylamino)-6-chloro-4H-benzo[e][1,2,4]thiadiazine 1,1-dioxide]",inhibition at 20 µM,[2]; [4],0%
"O=S1(=O)N=C(NCc2ccc(F)cc2)Nc2ccc(Cl)cc21 [Compound 54e, 7-Chloro-3-((4-fluorobenzyl)amino)-4H-benzo[e][1,2,4]thiadiazine 1,1-dioxide]",inhibition at 20 µM,[2]; [4],70 ± 23%
"CCNC1=NS(=O)(=O)c2ccccc2N1 [Compound 19d, 3-(ethylamino)-4H-benzo[e][1,2,4]thiadiazine 1,1-dioxide]",inhibition at 20 µM,[2]; [4],81 ± 25%
"O=S1(=O)N=C(NCc2ccc(F)cc2F)Nc2ccc(Br)cc21 [Compound 29c, 7-bromo-3-((2,4-difluorobenzyl)amino)-4H-benzo[e][1,2,4]thiadiazine 1,1-dioxide]",inhibition at 20 µM,[2]; [4],127%
COc1ccc(CCNC2=NS(=O)(=O)c3cc(F)ccc3N2)cc1 [Compound 9a],inhibition of VEGF-induced HUVEC proliferation (in words),[2]; VEGF 10 ng/mL,no appreciable inhibition
same,inhibition at 20 µM,[2],70 ± 22%
"O=S1(=O)N=C(NCc2ccc(F)cc2)Nc2cc(Cl)ccc21 [Compound 17b, 6-chloro-3-((4-fluorobenzyl)amino)-4H-benzo[e][1,2,4]thiadiazine 1,1-dioxide]",inhibition at 20 µM,[2]; [4],0%
"O=S1(=O)N=C(NCCc2c[nH]c3ccccc23)Nc2cc(Cl)ccc21 [Compound 36b, 3-((2-(1H-indol-3-yl)ethyl)amino)-6-chloro-4H-benzo[e][1,2,4]thiadiazine 1,1-dioxide]",inhibition at 20 µM,[2]; [4],24 ± 38%
same,inhibition at 100 µM,[1],25%
"O=S1(=O)N=C(NCc2ccc(C(F)(F)F)cc2)Nc2ccc(Br)cc21 [Compound 25c, 7-bromo-3-((4-(trifluoromethyl)benzyl)amino)-4H-benzo[e][1,2,4]thiadiazine 1,1-dioxide]",cytotoxicity at 100 µM,[3],34%
"CSC1=NS(=O)(=O)c2ccc(Cl)cc2N1 [Compound 13b, 6-Chloro-3-methylsulfanyl-4H-1,2,4-benzothiadiazine 1,1-Dioxide]",inhibition at 20 µM,[2]; [4],21 ± 23%
"O=S1(=O)N=C(NCc2ccc(C(F)(F)F)cc2)Nc2cc(Cl)ccc21 [Compound 25b, 6-chloro-3-((4-(trifluoromethyl)benzyl)amino)-4H-benzo[e][1,2,4]thiadiazine 1,1-dioxide]",inhibition at 20 µM,[2]; [4],1 ± 43%
same,inhibition at 100 µM,[1],19%
"O=S1(=O)N=C(NCc2ccncc2)Nc2ccc(Cl)cc21 [Compound 66e, 7-Chloro-3-((pyridin-4-ylmethyl)amino)-4H-benzo[e][1,2,4]thiadiazine 1,1-dioxide]",inhibition of VEGF-induced HUVEC proliferation (in words),[2]; VEGF 10 ng/mL,suppressed HUVEC proliferation; also recorded: enhanced activity
same,inhibition at 20 µM,[2]; [4],67 ± 27%
"CC(C)NC1=NS(=O)(=O)c2ccc(Cl)cc2N1 [Compound 14b, 6-Chloro-3-isopropylamino-4H-1,2,4-benzothiadiazine 1,1-Dioxide]",inhibition at 20 µM,[2],146 ± 18%
"Cc1ccccc1CNC1=NS(=O)(=O)c2ccc(Cl)cc2N1 [Compound 41b, 6-Chloro-3-((2-methylbenzyl)amino)-4H-benzo[e][1,2,4]thiadiazine 1,1-dioxide]",inhibition of VEGF-induced HUVEC proliferation (in words),[2]; VEGF 10 ng/mL,suppressed HUVEC proliferation; also recorded: enhanced activity
same,inhibition at 20 µM,[2]; [4],111 ± 9%
"CSC1=NS(=O)(=O)c2cc(F)ccc2N1C [Compound 42a, 7-fluoro-4-methyl-3-(methylthio)-4H-benzo[e][1,2,4]thiadiazine 1,1-dioxide]",inhibition of VEGF-induced HUVEC proliferation (in words),[2]; VEGF 10 ng/mL,no appreciable inhibition
same,inhibition at 20 µM,[2]; [4],41 ± 30%
"COc1cccc(CNC2=NS(=O)(=O)c3ccc(Cl)cc3N2)c1 [Compound 28b, 6-chloro-3-((3-methoxybenzyl)amino)-4H-benzo[e][1,2,4]thiadiazine 1,1-dioxide]",inhibition at 20 µM,[2],126 ± 26%
"O=C1Nc2cc(Cl)ccc2S(=O)(=O)N1 [Compound 11b, 6-chloro-3-oxo-3,4-dihydro-2H-1,2,4-benzothiadiazine1,1-dioxide]",inhibition at 20 µM,[2],0%
"O=S1(=O)N=C(NCCCc2ccccc2)Nc2ccccc21 [Compound 23d, 3-((3-phenylpropyl)amino)-4H-benzo[e][1,2,4]thiadiazine 1,1-dioxide]",inhibition at 20 µM,[2]; [4],39 ± 68%
same,inhibition at 100 µM,[1],0%
"COc1ccccc1CNC1=NS(=O)(=O)c2ccc(Cl)cc2N1 [Compound 26b, 6-chloro-3-((2-methoxybenzyl)amino)-4H-benzo[e][1,2,4]thiadiazine 1,1-dioxide]",inhibition at 20 µM,[2]; [4],79 ± 26%
"O=S1(=O)N=C(NCc2ccccc2)Nc2ccc(Cl)cc21 [Compound 57e, 3-(Benzylamino)-7-chloro-4H-benzo[e][1,2,4]thiadiazine 1,1-dioxide]",inhibition of VEGF-induced HUVEC proliferation (in words),[2]; VEGF 10 ng/mL,suppressed HUVEC proliferation; also recorded: enhanced activity
same,inhibition at 20 µM,[2]; [4],122 ± 9%
"O=S1(=O)N=C(NCCc2ccccc2)Nc2ccc(Cl)cc21 [Compound 55e, 7-Chloro-3-(phenethylamino)-4H-benzo[e][1,2,4]thiadiazine 1,1-dioxide]",inhibition at 20 µM,[2],82 ± 10%
"O=S1(=O)N=C(NCc2ccc(C(F)(F)F)cc2)Nc2ccc(F)cc21 [Compound 25a, 7-fluoro-3-((4-(trifluoromethyl)benzyl)amino)-4H-benzo[e][1,2,4]thiadiazine 1,1-dioxide]",inhibition of CII,[1],7% and 0%
"O=S1(=O)N=C(NCc2ccc(Cl)cc2)Nc2ccccc21 [Compound 16d, 3-((4-chlorobenzyl)amino)-4H-benzo[e][1,2,4]thiadiazine 1,1-dioxide]",inhibition of CII,[1],inactive
"Cc1ccc(CNC2=NS(=O)(=O)c3ccc(Cl)cc3N2)cc1 [Compound 27b, 6-chloro-3-((4-methylbenzyl)amino)-4H-benzo[e][1,2,4]thiadiazine 1,1-dioxide]",inhibition at 20 µM,[2]; [4],146 ± 18%
"COc1cccc(CCNC2=NS(=O)(=O)c3ccc(Cl)cc3N2)c1 [Compound 40b, 6-chloro-3-((3-methoxyphenethyl)amino)-4H-benzo[e][1,2,4]thiadiazine 1,1-dioxide]",inhibition at 20 µM,[2],99 ± 22%
"COc1ccc(CNC2=NS(=O)(=O)c3ccc(Cl)cc3N2)cc1 [Compound 20b, 6-chloro-3-((4-methoxybenzyl)amino)-4H-benzo[e][1,2,4]thiadiazine 1,1-dioxide]",inhibition of VEGF-induced HUVEC proliferation (in words),[2]; VEGF 10 ng/mL,suppressed HUVEC proliferation; also recorded: enhanced activity
same,inhibition at 20 µM,[2]; [4],132 ± 24%
"Cc1cccc(CNC2=NS(=O)(=O)c3ccc(Cl)cc3N2)c1 [Compound 42b, 6-Chloro-3-((3-methylbenzyl)amino)-4H-benzo[e][1,2,4]thiadiazine 1,1-dioxide]",inhibition of VEGF-induced HUVEC proliferation (in words),[2]; VEGF 10 ng/mL,suppressed HUVEC proliferation; also recorded: enhanced activity
same,inhibition at 20 µM,[2],125 ± 10%
